As a reminder, the IC50 is the concentration that inhibits the measured activity by half. A high value points to a need for much substance.

One assay has as its target T1, PARP14 (Homo sapiens, UniProt Q460N5).
T1 construct: endogenous in cells; host or cells: KYSE270
In words: PARP14 degradation assay (Western blot) in KYSE270 cells. To be noted: 24 h. In kind it is cell-based. The protocol:
KYSE270 cells were seeded at a density of […] in 6-well plates and incubated overnight. Once attached, cells were treated with the compounds of Examples 1-4 at increasing concentrations (0.001 μM, 0.01 μM, 0.1 μM, 1 μM, and 10 μM; 0.003 μM, 0.03 μM, 0.3 μM, and 3 μM were also evaluated for the compound of Example 1), or with DMSO for 24 h. Media was gently aspirated and cells washed 3 times with 2 mL of ice cold PBS while on ice. The PBS was completely aspirated and 75 μl freshly prepared lysis buffer (Thermo Fisher 78501) was added to cells before scraping into the buffer. Lysates were collected in microcentrifuge tubes and incubated on ice for 15 minutes. Lysates were centrifuged at 10,000 rpm for 15 min at 4° C. and supernatants collected into fresh microcentrifuge tubes. Protein concentration was measured using a reducing agent compatible with the Pierce BCA Protein Assay Kit (Thermo Fisher 23250). Samples were prepared in loading buffer (LI-COR 928-40004) containing 5% β-mercaptoethanol, and incubated at 95° C. for 5 min. Protein lysates were resolved on 4-12% Tris-Acetate gels in MOPS running buffer with 60 μg of protein per well. Western blot transfers were done with PVDF membranes (LI-COR Immobilon) with 20 volts for 14 minutes. Primary antibodies (PARP14: in house generated mouse antibody (15A6 LotIC), β-actin: D6A8 (8457)) were incubated at 1:1,000 dilution using the odyssey blocking buffer (LI-COR 927-50000) for 2 h at room temperature and detected with secondary antibody (LI-COR 926-68072, 926-32211). Mouse antibody 15A6 Lot1C was generated by immunizing with recombinant human PARP14 catalytic domain protein. After hybridoma fusion, the parental clones were screened for reactivity against PARP14 catalytic domain, which were then subcloned to generate monoclones including 15A6-1. Monoclonal supernatants were tested by Western blotting against THP-1 and THP-1 PARP14 KO cells to confirm reactivity. The PARP14 antibody was produced by culturing the 15A6-1 hybridoma monoclone in 1L of serum free media+2% low IgG FBS. […]

Assay [1] concerns the target T2, catalytic domain of human PARP14 (Homo sapiens, UniProt Q460N5).
T2 construct: made in house; host or cells: Escherichia coli
T2 sequence (Q460N5 1611-1801): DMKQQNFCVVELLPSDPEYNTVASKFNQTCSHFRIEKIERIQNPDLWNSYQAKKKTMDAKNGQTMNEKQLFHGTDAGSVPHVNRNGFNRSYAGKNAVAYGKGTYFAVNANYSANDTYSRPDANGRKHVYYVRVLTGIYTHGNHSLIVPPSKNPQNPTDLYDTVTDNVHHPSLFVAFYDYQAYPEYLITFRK
In words: Enzymatic assay for inhibition of PARP14 (DELFIA, auto-modification with biotin-NAD). The class given is biochemical. Particulars: compounds corresponding to group Q. The protocol: The catalytic domain of human PARP14 (residues 1611 to 1801, GenBank Accession No. NM_017554) was overexpressed in Escherichia coli cells. An N-teininal His-TEV fusion tag was used to purify the protein from cell lysates. The His-TEV tag was left on the protein for use in the enzymatic assay.
Enzymatic inhibition of PARP14 was measured using a dissociation-enhanced lanthanide fluorescence immunoassay (DELFIA) monitoring the auto-modification of PARP14 by biotinylated nicotinamide adenine dinucleotide (biotin-NAD), 1 μL of a dose response curve of each test compound was spotted in 384-well nickel-coated white microplates (Therno) using a Mosquito (TTP Labtech). Reactions were performed in a 50 p L volume by adding 40 μL of PARP14 in assay buffer (20 mM HEPES pH=8, 100 mM NaCl, 0.1% bovine serum albumin. 2 mM DTT and 0.002% Tween20), incubating with test compound at 25° C. for 30 min, then adding 10 μL of biotin-NA D (Biolog). The final concentrations of PARP14 and biotin-NAD are 50 nM and 3 μM, respectively. Reactions proceeded at 25° C. for 3 h, then were quenched with 5 μL of 10 mM unmodified nicotinamide adenine dinucleotide (Sigma-Aldrich). The quenched reactions were washed 3 times with 100 μL of TBST wash buffer (50 mM Tris-HCl, 150 mnM NaCl and 0.1% Tween20). Next, to the washed and dried plate was added 25 μL of DELFIA Europium-NI streptavidin (Perkin Elmer) diluted in DELFIA assay buffer (Perkin Elmer). After a 30 min incubation at 25° C., the plate was washed 5 times with TBST wash buffer. Finally, 25 μL of DELFIA enhancement solution was added. After a 5 min incubation the plate was read on an Envision platereader equipped with a LANCE/DELFIA top mirror (Perkin Elmer) using excitation of 340 nm and emission of 615 nm to measure the amount of Europium present in each well, informing on the amount of biotin-NAD that was transferred in the automodification reaction. Control wells containing a negative control of 2% DMSO vehicle or a positive control of 100 μM rucaparib were used to calculate the % inhibition as described below:
where ex615cmpd is the emission from the compound treated well, ex615min, is the emission from the rucaparib treated positive control well and ex615max is the emission from the DMSO treated negative control well.
The % inhibition values were plotted as a function of compound concentration and the following 4-parameter fit was applied to derive the IC50 values:
where top and bottom are normally allowed to float, but may be fixed at 100 or 0 respectively in a 3-parameter fit. The Hill Coefficient is normally allowed to float but may also be fixed at 1 in a 3-parameter fit. Y is the % inhibition and X is the compound concentration.

A further assay deals with IL-10 production. In words: Reduction of IL-10 production in IL-4 stimulated M2-like macrophages (ELISA). Particulars: IL-4 stimulated M2-like macrophages from human monocytes; 1, 0.1 or 0.01 μM. The class given is cell-based. As for the experimental part:
Monocytes were isolated from peripheral human blood and cultured in the presence of M-CSF and the compound of Example 1 (at 1, 0.1 or 0.01 μM) for 72 h. M-CSF differentiates monocytes into M-0 macrophages. Subsequently medium was replaced with fresh medium containing IL-4 and the compound of Example 1 (at 1, 0.1 or 0.01 μM), and cells were incubated for another 48 h. Isolation of primary human monocytes from whole blood: Primary monocytes were isolated from whole blood (iSPECIMEN; 500 mL) collected from healthy donors. Blood was diluted at a 1:1 ratio with EasySep buffer (STEMCELL Technologies 20144) and layered onto lymphoprep (STEMCELL Technologies 07811) in SepMate tubes (STEMCELL Technologies 85450) for PBMC isolation according to the manufacturer's instructions. […] Cells were treated with the compound of Example 1 or DMSO on day 6 after seeding at 1 μmol/L, 0.1 μmol/L, and 0.01 μmol/L. IL-10 determination: Levels of IL-10 in the supernatants of human primary M2 macrophages were determined with the IL-10 ELISA kit (STEMCELL Technologies 02013) according to the manufacturer's instructions. Briefly, supernatants were collected at the indicated time point and depleted of any floating cells before being stored at −80° C. until ready to use. IL-10 concentrations were determined from the kit's IL-10 standard curve and normalized to total cell protein.
In general terms: ELISA stands for enzyme-linked immunosorbent assay.

T1 sequence (Q460N5 whole entry): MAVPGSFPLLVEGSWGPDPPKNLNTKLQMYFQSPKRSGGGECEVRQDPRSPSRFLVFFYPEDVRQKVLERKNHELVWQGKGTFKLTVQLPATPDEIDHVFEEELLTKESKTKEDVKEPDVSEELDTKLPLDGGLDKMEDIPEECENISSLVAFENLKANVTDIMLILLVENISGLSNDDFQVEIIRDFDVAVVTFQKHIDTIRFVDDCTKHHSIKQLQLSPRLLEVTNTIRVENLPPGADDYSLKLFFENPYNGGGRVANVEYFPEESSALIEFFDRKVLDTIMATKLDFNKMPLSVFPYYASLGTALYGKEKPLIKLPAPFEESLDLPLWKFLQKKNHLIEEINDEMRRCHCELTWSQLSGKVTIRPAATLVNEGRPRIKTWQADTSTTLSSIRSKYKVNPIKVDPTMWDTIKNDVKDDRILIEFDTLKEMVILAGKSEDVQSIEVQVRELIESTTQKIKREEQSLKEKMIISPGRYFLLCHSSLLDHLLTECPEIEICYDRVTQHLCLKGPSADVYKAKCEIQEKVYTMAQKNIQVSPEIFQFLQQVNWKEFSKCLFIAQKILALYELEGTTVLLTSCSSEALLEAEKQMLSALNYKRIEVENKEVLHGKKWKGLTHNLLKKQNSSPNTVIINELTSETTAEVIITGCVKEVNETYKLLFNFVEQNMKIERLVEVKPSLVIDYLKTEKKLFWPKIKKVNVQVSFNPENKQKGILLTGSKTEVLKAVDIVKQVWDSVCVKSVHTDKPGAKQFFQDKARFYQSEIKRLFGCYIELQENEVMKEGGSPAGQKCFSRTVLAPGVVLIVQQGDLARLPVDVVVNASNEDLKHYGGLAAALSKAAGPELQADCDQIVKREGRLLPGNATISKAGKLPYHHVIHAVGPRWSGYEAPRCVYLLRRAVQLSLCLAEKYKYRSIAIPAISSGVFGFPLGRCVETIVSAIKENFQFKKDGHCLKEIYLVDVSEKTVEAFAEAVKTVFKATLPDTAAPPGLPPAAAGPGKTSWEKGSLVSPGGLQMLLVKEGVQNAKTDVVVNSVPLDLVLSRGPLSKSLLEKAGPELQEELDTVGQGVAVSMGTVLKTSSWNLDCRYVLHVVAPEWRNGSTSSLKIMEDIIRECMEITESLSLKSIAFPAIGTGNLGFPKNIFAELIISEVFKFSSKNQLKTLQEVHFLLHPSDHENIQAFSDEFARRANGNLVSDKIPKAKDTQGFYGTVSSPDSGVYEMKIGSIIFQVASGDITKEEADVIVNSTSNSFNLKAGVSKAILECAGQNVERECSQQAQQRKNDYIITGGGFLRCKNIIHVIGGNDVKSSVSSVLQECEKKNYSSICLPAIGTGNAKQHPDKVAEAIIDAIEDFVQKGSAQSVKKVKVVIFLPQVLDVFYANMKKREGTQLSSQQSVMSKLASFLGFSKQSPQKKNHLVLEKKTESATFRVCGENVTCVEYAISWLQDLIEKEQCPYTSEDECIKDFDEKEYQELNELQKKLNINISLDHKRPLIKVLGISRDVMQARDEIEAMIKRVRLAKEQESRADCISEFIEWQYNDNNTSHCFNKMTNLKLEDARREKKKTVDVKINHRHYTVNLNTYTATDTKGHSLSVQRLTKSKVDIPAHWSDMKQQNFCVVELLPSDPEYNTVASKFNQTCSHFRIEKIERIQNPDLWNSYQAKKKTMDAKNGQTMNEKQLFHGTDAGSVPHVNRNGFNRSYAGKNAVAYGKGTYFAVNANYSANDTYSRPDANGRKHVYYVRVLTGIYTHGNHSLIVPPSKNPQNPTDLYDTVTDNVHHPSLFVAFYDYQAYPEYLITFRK

As to `O=C1CCC(N2C(=O)c3cccc(NCCCCCCCC(=O)N[C@H]4CC[C@H](SCc5nc6cc(OCC7CCOCC7)cc(F)c6c(=O)[nH]5)CC4)c3C2=O)C(=O)N1` (some centres unmarked) [Example 3, 8-((2-(2,6-dioxopiperidin-3-yl)-1,3-dioxoisoindolin-4-yl)amino)-N-((1r,4r)-4-(((5-fluoro-4-oxo-7-((tetrahydro-2H-pyran-4-yl)methoxy)-3,4-dihydroquinazolin-2-yl)methyl)thio)cyclohexyl)octanamide], the “hook effect at higher concentrations (PARP14 degradation)” value (“hook effect at higher concentrations” below) at PARP14 was “amelioration of efficacy”.

With `O=c1[nH]c(CS[C@H]2CC[C@H](O)CC2)nc2cc(OCC3CCOCC3)cc(F)c12`, the IC50 in assay [1] was less than 1 µM.

Regarding `O=C1CCC(N2C(=O)c3cccc(NCCC(=O)N[C@H]4CC[C@H](SCc5nc6cc(OCC7CCOCC7)cc(F)c6c(=O)[nH]5)CC4)c3C2=O)C(=O)N1` (some centres unmarked) [Example 4, 3-((2-(2,6-dioxopiperidin-3-yl)-1,3-dioxoisoindolin-4-yl)amino)-N-((1r,4r)-4-(((5-fluoro-4-oxo-7-((tetrahydro-2H-pyran-4-yl)methoxy)-3,4-dihydroquinazolin-2-yl)methyl)thio)cyclohexyl)propanamide], on PARP14, the “hook effect at higher concentrations” value is recorded as “amelioration of efficacy”.

`O=c1[nH]c(CSC2CCNCC2)nc2cc(NC3CCCC3)cc(F)c12`: the IC50 in assay [1] was less than 1 µM.

With `O=c1[nH]c(CS[C@H]2CC[C@@H](O)CC2)nc2cc(OCC3CCOCC3)cc(F)c12`, in assay [1], the IC50 is less than 1 µM.

As for `O=c1[nH]c(CSC2CCC(O)CC2)nc2cc(OCC3CCCOC3)cc(F)c12` (centres unmarked), the IC50 in assay [1] is less than 1 µM.

As to `O=C(CN1CCC(SCc2nc3cc(NC4CCCC4)cc(F)c3c(=O)[nH]2)CC1)NCCCCCCNc1cccc2c1C(=O)N(C1CCC(=O)NC1=O)C2=O.O=C(O)C(F)(F)F` (centres unmarked) [Example 1, 2-(4-(((7-(Cyclopentylamino)-5-fluoro-4-oxo-3,4-dihydroquinazolin-2-yl)methyl)thio)piperidin-1-yl)-N-(6-((2-(2,6-dioxopiperidin-3-yl)-1,3-dioxoisoindolin-4-yl)amino)hexyl)acetamide trifluoroacetate], the “hook effect at higher concentrations” value at PARP14 was “amelioration of efficacy”. In the assay on IL-10 production, the “IL-10 production (IL-10 levels in tissue culture supernatant, ELISA)” value is recorded as “decreased IL-10 production”.

The record behind these values is patent US20260125362A1, “TARGETED PROTEIN DEGRADATION OF PARP14 FOR USE IN THERAPY” (AbbVie Biotechnology Ltd, priority 2019, published 2026).
